Source: patent US7674823B2, “DNA-PK inhibitors” (Cancer Research Technology Limited, priority 2001, dated 2010)

Columns and labels:
HeLa cells = assay: Enhancement Ratio: cell growth inhibition (SRB assay) after 2 Gy irradiation; format: cell-based; details: inhibitor 25 μM
Protocol: DNA-PK inhibitors were used at a fixed concentration of 25 micromolar. Radiation was delivered by a Faxitron 43855D X-ray system at a dose rate of 1Gy per minute The Enhancement ratio at 2 Gy irradiation was calculated from the formula: [formula] Cell growth was assessed using the sulforhodamine B (SRB) assay (Skehan, P., Storung, R., Scudiero, R., Monks, […]., Kenny, S. and Boyd, M. R. (1990) New calorimetric cytotoxicity assay for anticancer-drug screening. J. Natl. Cancer Inst. 82:1107-1112). 400 HeLa cells were seeded into each well of a flat-bottomed 48-well microtiter plate in a volume of 200 μl and incubated for 6 h at 37° C. […] Cells were allowed to grow for a further 1 h before irradiation or mock irradiation. Cells untreated with DNA-PK inhibitor or unirradiated were used as a control. Cells treated with DNA-PK inhibitor alone were used to assess the growth inhibition by the DNA-PK inhibitor. Cells were left for a further 16 h before replacing the media and allowing the cells to grow for a further 6 days at 37° C. The media was then removed and the cells fixed with 200 μl of ice cold 10% (w/v) trichloroacetic acid. The plates were incubated at 4° C. for 20 minutes and then washed four times with water. Each well of cells was then stained with 200 μl of 0.4% (w/v) SRB in 1% acetic acid for 20 minutes before washing four times with 1% acetic acid. Plates were then dried for 2 h at room temperature. The dye from the stained cells was solubilized by the addition of 100 μl of 10 mM Tris Base into each well. Plates were gently shaken and left at room temperature for 30 minutes before measuring the optical density at 564 nm on a Microquant microtiter plate reader.

melting point [°C] | SMILES | Enhancement Ratio (ER) (HeLa cells)
181 to 183 | CC1CN(c2cc(=O)c3ccc4ccccc4c3o2)CCO1 (stereo not drawn) [Compound 317, 2-(2-Methyl-morpholin-4-yl)-benzo[h]chromen-4-one] | 3.62
210 to 211 | O=C1c2ccccc2C(=O)N1CCCOc1ccc2c(=O)cc(N3CCOCC3)oc2c1 [Compound 422, N-[3-(2-(Morpholin-4-yl)-4-oxo-4H-chromen-7-yloxy)-propyl]-phthalimide] | 1.68
220 to 222 | O=c1cc(N2CCOCC2)oc2c3c(ccc12)CCCC3 [Compound 297, 7,8,9,10-tetrahydro-benzo[h]-2-(morpholin-4-yl)-chromen-4-one] | 2.12
